Measurements reported in paper PMC2009384, “The carcinogenicity of polycyclic hydrocarbon epoxides in newborn mice” (British Journal of Cancer, 1975).

Columns and labels:
newborn Swiss mice = assay: Experiment I: carcinogenicity in newborn mice, benz(a)anthracene vs its K region epoxide (s.c. injection, tumour incidence to 70-75 weeks)
Text: Br. J. Cancer (1975) 31, 182 THE CARCINOGENICITY OF POLYCYCLIC HYDROCARBON EPOXIDES IN NEWBORN MICE P. L. GROVER, P. SIMS, B. C. V. MITCHLEY AND F. J. C. ROE From the Chester Beatty Research Institute, Institute of Cancer Research, Royal Cancer Hospital, Fulham Road, London, SW3 6JB Received 9 August 1974. […] THE HYPOTHESIS that the carcino- genicity of polycyclic hydrocarbons is associated with the formation of epoxide metabolites (Grover, Hewer and Sims, 1971, 1972; Keysell et al., 1973) is sup- ported by some experimental evidence but remains unproven. […] The epoxides can also act as alkylating agents (Grover and Sims, 1970) and as mutagens (Ames, Sims and Grover, 1972; Huberman et al., 1971; Cookson, Sims and Grover, 1971; Fahmy and Fahmy, 1973). […] The newborn mouse, which is susceptible to carcinogenic polycyclic hydrocarbons (Roe, Rowson and Salaman, 1961; Roe, Mitchley and Walters, 1963; Walters and Roe, 1964, 1966) can be considered as a convenient source of several types of rapidly dividing cells. Consequently we have tested the K region epoxides derived from phenanthrene, benz(a)anthracene, 7-methylbenz(a)anthracene, dibenz(a,h)- anthracene, chrysene and 3-methylchol- anthrene, together with some of the CARCINOGENICITY OF POLYCYCLIC HYDROCARBON EPOXIDES IN MICE 183 parent hydrocarbons, for carcinogenicity using newborn mice. This paper presents the results that were obtained in these experiments. MATERIALS AND METHODS The polycyclic hydrocarbon epoxides, phenanthrene 9,10-oxide, benz(a)anthracene 5,6-oxide, 7-methylbenz(a)anthracene 5,6- oxide, dibenz(a,h)anthracene 5,6-oxide, chry- sene 5,6-oxide and 3-methylcholanthrene 11,12-oxide were prepared from the parent hydrocarbons (Newman and Blum, 1964; Boyland and Sims, 1965; Sims 1966). Two experiments were undertaken fol- lowing similar protocols. For each experi- ment Swiss mice from a specific pathogen- free colony were time mated so as to produce a large number of litters over the course of 2 or 3 days. […] Test compounds were suspended in poly- ethylene glycol (PEG) 400 and injections of 0-02 ml of the suspension were given by introducing a 25 gauge hypodermic needle through the skin near the root of the tail and threading it subcutaneously to deliver the injected material in the interscapular region. Injections were given to every mouse on the first day or first 3 days of life. The details of treatments and numbers of mice of each sex in each group are shown in Table I (Experiment I) and Table II (Ex- periment II). Surviving mice were weaned when they w ere 21 days old. Thereafter, males and females w ere separated and housed 6 per cage in metal boxes. A mixture of sawdust and wood shavings was used as bedding. The mice were fed on a standard cubed diet (Formulation 86 from C. Holdman and Sons (Plow co Feeds), Byers Lane, South Godstone, Surrey) and water was given ad libitum. Mice were inspected daily, and at weekly intervals they were weighed and palpated for tumours and other lesions. […] The experiment was terminated when surviving mice were between 70 and 75 weeks old. A full routine post- mortem examination, which included disten- sion of the urinary bladder with fixative, was carried out. The number of lesions thought to be neoplasms and the size of the largest such lesion in each organ affected were recorded. All tissues with suspected neoplasms were fixed in Bouin's solution. Haematoxylin and eosin stained 5 µm paraffin wax sections were prepared and examined microscopically. RESULTS The results of the two experiments in terms of tumour incidence are sum- marized in […].

newborn mice = conditions: ref Roe and Walters, 1967; cited from earlier work
[1] = Groups A, B and C, 3 x 200, 100, 50 µg s.c.
[2] = females, 50 µg per treatment s.c. on Days 0, 1 and 2
[3] = females, 50 µg per treatment s.c. on Days 0, 1 and 2 in PEG 400
[4] = females, 100 µg per treatment s.c. on Days 0, 1 and 2
[5] = females, 100 µg per treatment s.c. on Days 0, 1 and 2 in PEG 400
[6] = females, 200 µg per treatment s.c. on Days 0, 1 and 2
[7] = females, 200 µg per treatment s.c. on Days 0, 1 and 2 in PEG 400
[8] = males, 50 µg per treatment s.c. on Days 0, 1 and 2
[9] = males, 50 µg per treatment s.c. on Days 0, 1 and 2 in PEG 400
[10] = males, 100 µg per treatment s.c. on Days 0, 1 and 2
[11] = males, 100 µg per treatment s.c. on Days 0, 1 and 2 in PEG 400
[12] = males, 200 µg per treatment s.c. on Days 0, 1 and 2
[13] = males, 200 µg per treatment s.c. on Days 0, 1 and 2 in PEG 400

c1ccc2cc3c(ccc4ccccc43)cc2c1 [Benz(a)anthracene, reference compound]
1: No. of mice examined at p.m. at termination of experiment (70th-75th week) with multiple liver tumours (newborn Swiss mice; [2]) | No. of mice examined at p.m. from 50th-70th week with lung tumours (newborn Swiss mice; [2]) | No. of mice examined at p.m. at termination of experiment (70th-75th week) with multiple liver tumours (newborn Swiss mice; [6]) | No. of mice examined at p.m. at termination of experiment (70th-75th week) with other tumours (newborn Swiss mice; [6]) | No. of mice examined at p.m. from 50th-70th week with lung tumours (newborn Swiss mice; [8]) | No. of mice examined at p.m. at termination of experiment (70th-75th week) with other tumours (newborn Swiss mice; [10]) | No. of mice examined at p.m. from 50th-70th week with lung tumours (newborn Swiss mice; [10]) | No. of mice examined at p.m. from 50th-70th week with liver tumours (newborn Swiss mice; [12]) | No. of mice examined at p.m. from 50th-70th week with lung tumours (newborn Swiss mice; [12])
25: No. of survivors at 50 weeks (newborn Swiss mice; [3]) | No. of survivors at 70 weeks (newborn Swiss mice; [9]) | No. of survivors at 50 weeks (newborn Swiss mice; [11])
29: No. of survivors at 50 weeks (newborn Swiss mice; [9])
15: No. of mice examined at p.m. at termination of experiment (70th-75th week) with liver tumours (newborn Swiss mice; [10]) | No. of mice examined at p.m. at termination of experiment (70th-75th week) with liver tumours (newborn Swiss mice; [12]) | No. of mice examined at p.m. at termination of experiment (70th-75th week) with multiple liver tumours (newborn Swiss mice; [12]) | No. of survivors at 70 weeks (newborn Swiss mice; [13])
7: No. of mice examined at p.m. at termination of experiment (70th-75th week) with lung tumours (newborn Swiss mice; [2])
11: No. of mice examined at p.m. at termination of experiment (70th-75th week) with multiple liver tumours (newborn Swiss mice; [10])
18: No. of survivors at 50 weeks (newborn Swiss mice; [7]) | No. of survivors at 70 weeks (newborn Swiss mice; [7]) | No. of survivors at 50 weeks (newborn Swiss mice; [13])
4: No. of mice examined at p.m. from 50th-70th week with liver tumours (newborn Swiss mice; [10]) | No. of mice examined at p.m. at termination of experiment (70th-75th week) with lung tumours (newborn Swiss mice; [12]) | No. of mice examined at p.m. at termination of experiment (70th-75th week) with multiple lung tumours (newborn Swiss mice; [12])
0: No. of mice examined at p.m. at termination of experiment (70th-75th week) with other tumours (newborn Swiss mice; [2]) | No. of mice examined at p.m. from 50th-70th week with liver tumours (newborn Swiss mice; [2]) | No. of mice examined at p.m. from 50th-70th week with other tumours (newborn Swiss mice; [2]) | No. of mice examined at p.m. at termination of experiment (70th-75th week) with liver tumours (newborn Swiss mice; [4]) | No. of mice examined at p.m. at termination of experiment (70th-75th week) with multiple liver tumours (newborn Swiss mice; [4]) | No. of mice examined at p.m. at termination of experiment (70th-75th week) with other tumours (newborn Swiss mice; [4]) | No. of mice examined at p.m. from 50th-70th week with liver tumours (newborn Swiss mice; [4]) | No. of mice examined at p.m. from 50th-70th week with other tumours (newborn Swiss mice; [4]) | No. of mice examined at p.m. from 50th-70th week with liver tumours (newborn Swiss mice; [6]) | No. of mice examined at p.m. from 50th-70th week with lung tumours (newborn Swiss mice; [6]) | No. of mice examined at p.m. from 50th-70th week with other tumours (newborn Swiss mice; [6]) | No. of mice examined at p.m. at termination of experiment (70th-75th week) with other tumours (newborn Swiss mice; [8]) | No. of mice examined at p.m. from 50th-70th week with other tumours (newborn Swiss mice; [8]) | No. of mice examined at p.m. from 50th-70th week with other tumours (newborn Swiss mice; [10]) | No. of mice examined at p.m. at termination of experiment (70th-75th week) with other tumours (newborn Swiss mice; [12]) | No. of mice examined at p.m. from 50th-70th week with other tumours (newborn Swiss mice; [12])
3: No. of mice examined at p.m. at termination of experiment (70th-75th week) with multiple lung tumours (newborn Swiss mice; [2]) | No. of mice examined at p.m. from 50th-70th week with liver tumours (newborn Swiss mice; [8]) | No. of mice examined at p.m. at termination of experiment (70th-75th week) with multiple lung tumours (newborn Swiss mice; [10])
2: No. of mice examined at p.m. at termination of experiment (70th-75th week) with liver tumours (newborn Swiss mice; [2]) | No. of mice examined at p.m. at termination of experiment (70th-75th week) with multiple lung tumours (newborn Swiss mice; [4]) | No. of mice examined at p.m. from 50th-70th week with lung tumours (newborn Swiss mice; [4]) | No. of mice examined at p.m. at termination of experiment (70th-75th week) with liver tumours (newborn Swiss mice; [6]) | No. of mice examined at p.m. at termination of experiment (70th-75th week) with multiple lung tumours (newborn Swiss mice; [8])
13: No. of survivors at 70 weeks (newborn Swiss mice; [5])
17: No. of survivors at 50 weeks (newborn Swiss mice; [5])
21: No. of survivors at 70 weeks (newborn Swiss mice; [3])
dose related effect: effect on the incidence of liver tumours in male mice (newborn Swiss mice; [1]) | effect on the incidence of lung tumours in mice of both sexes (newborn Swiss mice; [1])
5: No. of mice examined at p.m. at termination of experiment (70th-75th week) with lung tumours (newborn Swiss mice; [4]) | No. of mice examined at p.m. at termination of experiment (70th-75th week) with lung tumours (newborn Swiss mice; [8]) | No. of mice examined at p.m. at termination of experiment (70th-75th week) with multiple liver tumours (newborn Swiss mice; [8]) | No. of mice examined at p.m. at termination of experiment (70th-75th week) with lung tumours (newborn Swiss mice; [10])
9: No. of mice examined at p.m. at termination of experiment (70th-75th week) with liver tumours (newborn Swiss mice; [8])
10: No. of mice examined at p.m. at termination of experiment (70th-75th week) with lung tumours (newborn Swiss mice; [6]) | No. of mice examined at p.m. at termination of experiment (70th-75th week) with multiple lung tumours (newborn Swiss mice; [6])
19: No. of survivors at 70 weeks (newborn Swiss mice; [11])

c1ccc2c(c1)ccc1ccccc12 [phenanthrene]
inactive: activity in newborn mice (newborn mice)
